Measured values taken from US20170368089A1, “COMPOSITION FOR PREVENTING OR TREATING COLITIS” (UNIVERSITY-INDUSTRY COOPERATION GROUP OF KYUNG HEE …, priority 2012, published 2017).

What was measured:
Assay type in all cases: in vivo, ICR male mice
[1] = test system: model animal with acute colitis induced by TNBS; assay: Acute colitis induced by TNBS in mice: weight change, macroscopic score, colon length, MPO activity, 4th experiment (Timosaponin A-III); settings: FIGS. 38 to 41; 10 and 20 mg/mouse kg orally
Description: 4-week ICR male mice (24 to 27 g) were purchased from OrientBio. All the mice were bred under the controlled environmental conditions of 50±10% of humidity and 25±2° C. of temperature, and the lighting was repeatedly on for 12 hours and off for 12 hours. A feed for a standard experiment (Samyang, Korea) was used as a feed, and water was freely taken. For all the experiments, one group was 6 mice.
(2) Induction of acute colitis by TNBS and sample administration Among the experimental groups, one group was set as a normal group, and for the experimental animals in other groups, colitis was induced with 2,4,6-trinitrobenzenesulfonic acid (TNBS). […]
The sample administration to the model animals with acute colitis induced by TNBS was stopped, and at the next day, the weights of the experimental animals were measured, and then, the measured weights were compared with the initial weights to calculate the change amounts of weights […]
200 μl of lysis buffer was added to 100 mg of colon tissue, and then, the colon tissue was homogenized. […] In the supernatant, the MPO activity was measured using a mouse MPO assay ELISA kit (Hbt HK210, USA). […]

[2] = test system: model animal with acute colitis induced by TNBS; assay: Acute colitis induced by TNBS in mice, appearance analysis of colon (colon length, macroscopic score), first experiment; settings: Table 3 (group 2), TNBS-treated mice, 3 days; for Macroscopic score (Mean score): score 0-5
Description: 4-week ICR male mice (24 to 27 g) were purchased from OrientBio. All the mice were bred under the controlled environmental conditions of 50±10% of humidity and 25±2° C. of temperature, and the lighting was repeatedly on for 12 hours and off for 12 hours. A feed for a standard experiment (Samyang, Korea) was used as a feed, and water was freely taken. For all the experiments, one group was 6 mice. […] Meanwhile, 0.1 ml of normal saline solution was orally administered to the normal group. Since then, from the next day, the sample dissolved in normal saline solution was orally administered in the volume that was decided in advance one time a day for 3 days. At the next day after completing the sample administration, the experimental animals were suffocated to death with carbon dioxide, the colon from appendix to the region just before the anus was removed from the colon region. The scores about the removed colons were estimated by observing the appearances and the lengths of the colons according to the following criteria (Hollenbach, and the like, the criteria about the level of colon in 2005) as listed in Table 1. […] In addition, some of the content in the colon was collected in order to analyze the rumen microorganisms, and then, was stored in a freezer of −80° C. From the tissue of colon, the content in the colon was completely removed and then the tissue of colon was washed with normal saline solution. Since then, some of the tissue was fixed with 4% formaldehyde fixing solution in order to be used as a sample for a histopathological examination, and the rest was stored in a freezer of −80° C. for a molecular biological analysis.

Myeloperoxidase (MPO) = assay: MPO activity of colon tissue (mouse MPO ELISA kit), TNBS colitis, first experiment; settings: Table 3 (group 2), TNBS-treated mice, 3 days
Description: (§1) Among the experimental groups, one group was set as a normal group, and for the experimental animals in other groups, colitis was induced with 2,4,6-trinitrobenzenesulfonic acid (TNBS). In detail, after lightly anesthetizing the experimental animals with ether, 0.1 ml of the solution prepared by mixing […] of 2,4,6-Trinitrobenzene sulfonic acid (NBS) solution with 50% ethanol was injected into the colon through the anus using a syringe having 1 ml volume and oval point, respectively; and then, the syringe was vertically picked up, and then, maintained for 30 seconds to induce the inflammation. Meanwhile, 0.1 ml of normal saline solution was orally administered to the normal group. Since then, from the next day, the sample dissolved in normal saline solution was orally administered in the volume that was decided in advance one time a day for 3 days. At the next day after completing the sample administration, the experimental animals were suffocated to death with carbon dioxide, the colon from appendix to the region just before the anus was removed from the colon region.
200 μl of lysis buffer was added to 100 mg of colon tissue, and then, the colon tissue was homogenized. Since then, the homogenized colon tissue was centrifuged under the conditions of 4° C. and 13000 rpm for 15 minutes, and then, the supernatant thereof was obtained. In the supernatant, the MPO activity was measured using a mouse MPO assay ELISA kit (Hbt HK210, USA). 100 μl of the supernatant was added in a 96 well plate, and then, reacted at room temperature for 1 hour. After completing the reaction, the plate was overturned and emptied; was repeatedly washed three times with 200 μl of washing buffer solution; 100 μl of diluted tracer was added thereto; and then the reaction was performed at room temperature for 1 hour. After completing the reaction, the plate was overturned and emptied; and then each well in the plate was washed using 200 μl of washing buffer solution. After repeatedly performing the washing processes three times using 200 μl of washing buffer solution, 100 μl of diluted streptavidin-peroxidase conjugate was added thereto, and then, the reaction was performed at room temperature for 1 hour. After completing the reaction, the plate was overturned and emptied, and then, each well in the plate was washed with 200 μl of washing buffer solution. After the washing processes were repeatedly performed three times using 200 μl of washing buffer solution, 100 μl of TMB substrate solution was added thereto; the plate was wrapped in an aluminum foil to block out the light; and then, the reaction was performed at room temperature for 30 minutes. Since then, 100 μl of a stop solution was added to stop the reaction, and then, the absorbance was measured at 450 nm using an ELISA reader.

TNF-alpha = TNF-alpha expression in colon tissue (ELISA), TNBS colitis, first experiment; settings: Table 5 (group 2), TNBS-treated mice, 3 days
Description: as §1
(§2) 250 μl of RIPA butter including protease inhibitor cocktail was added to 100 mg of the colon tissue of experimental animal, and then, the colon tissue was homogenized. Since then, the homogenized colon tissue was centrifuged under the conditions of 4° C. and 13000 rpm for 15 minutes to obtain supernatant. While the supernatant was stored at −80° C., the expression amounts of IL-1 beta, IL-6, and TNF-alpha were measured using a 96-well ELISA plate kits (Pierce Biotechology, Inc., Rockford, Ill., USA).

IL-1 beta = IL-1 beta expression in colon tissue (ELISA), TNBS colitis, first experiment; settings: Table 5 (group 2), TNBS-treated mice, 3 days
Description: as §1, §2

IL-6 = IL-6 expression in colon tissue (ELISA), TNBS colitis, first experiment; settings: Table 5 (group 2), TNBS-treated mice, 3 days
Description: as §1, §2

Structure (SMILES)	effect on alleviating or improving acute colitis induced by TNBS (weight change, macroscopic score, colon length, MPO activity; in words) [1]	Colon length ([2]; 10 mg/kg orally)	Macroscopic score (Mean score) ([2]; 10 mg/kg orally)	Colon length ([2]; 20 mg/kg orally)	Macroscopic score (Mean score) ([2]; 20 mg/kg orally)	MPO activity (Myeloperoxidase (MPO); 10 mg/kg orally)	MPO activity (Myeloperoxidase (MPO); 20 mg/kg orally)	TNF-alpha conc. (TNF-alpha; 10 mg/kg orally)	TNF-alpha conc. (TNF-alpha; 20 mg/kg orally)	IL-1 beta conc. (IL-1 beta; 10 mg/kg orally)	IL-1 beta conc. (IL-1 beta; 20 mg/kg orally)	IL-6 conc. (IL-6; 10 mg/kg orally)	IL-6 conc. (IL-6; 20 mg/kg orally)
C[C@H]1CC[C@@]2(OC1)O[C@H]1C[C@H]3[C@@H]4CC[C@@H]5C[C@@H](O[C@@H]6O[C@H](CO)[C@H](O)[C@H](O)[C@H]6O[C@@H]6O[C@H](CO)[C@@H](O)[C@H](O)[C@H]6O)CC[C@]5(C)[C@H]4CC[C@]3(C)[C@H]1[C@@H]2C [Timosaponin A-III]	effect on alleviating or improving acute colitis induced by TNBS according to the concentration dependent	–	–	–	–	–	–	–	–	–	–	–	–
O=c1c2cc(O)c(O)cc2oc2cc(O)c([C@@H]3O[C@H](CO)[C@@H](O)[C@H](O)[C@H]3O)c(O)c12 [mangiferin, Mangiferin]	–	5.81 ± 0.09 cm	2.7 ± 0.45	6.98 ± 0.21 cm	1.7 ± 0.27	0.5 ± 0.2 μUnit/mg	0.2 ± 0.2 μUnit/mg	83.8 ± 10.9 pg/mg	40.8 ± 10.9 pg/mg	57.4 ± 2.1 pg/mg	28.1 ± 12.1 pg/mg	5.0 ± 0.6 pg/mg	2.2 ± 0.8 pg/mg
O=c1c2cc(O[C@@H]3O[C@H](CO)[C@@H](O)[C@H](O)[C@H]3O)c(O)cc2oc2cc(O)c([C@@H]3O[C@H](CO)[C@@H](O)[C@H](O)[C@H]3O)c(O)c12 [neomangiferin, Neomangiferin]	–	5.78 ± 0.10 cm	2.8 ± 0.51	–	–	0.6 ± 0.2 μUnit/mg	–	93.6 ± 9.2 pg/mg	–	62.2 ± 5.1 pg/mg	–	6.9 ± 1.2 pg/mg	–
